Test results reported in patent US8952024B2, “Herbicidal pyrimidone derivatives” (E I du Pont de Nemours and Company, priority 2009, dated 2015).

What was measured:
Experiment in all cases: Test B pre-/postemergence plant response
Type in all cases: in vivo
[1] = test system: lambsquarters (Chenopodium album)
Summary of the method: (§1)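 Seeds sown in loam–sand blend were treated preemergence, and plants at 2–18 cm (1- to 4-leaf stage) in peat-based medium were treated postemergence; compounds were formulated in non-phytotoxic solvent with surfactant. After 13–15 days in greenhouse, response was visually rated against controls, 0 (no effect) to 100 (complete control).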

[2] = test system: Surinam grass (Brachiaria decumbens)
Summary of the method: as §1

[3] = test system: green foxtail (Setaria viridis)
Summary of the method: as §1

[4] = test system: Italian ryegrass (Lolium multiflorum)
Summary of the method: as §1

[5] = test system: wheat (Triticum aestivum)
Summary of the method: as §1

[6] = test system: large crabgrass (Digitaria sanguinalis)
Summary of the method: as §1

[7] = test system: ragweed (common ragweed, Ambrosia elatior)
Summary of the method: as §1

[8] = test system: yellow nutsedge (Cyperus esculentus)
Summary of the method: as §1

[9] = test system: pigweed (Amaranthus retroflexus)
Summary of the method: as §1

[10] = test system: velvetleaf (Abutilon theophrasti)
Summary of the method: as §1

[11] = test system: goosegrass (Eleusine indica)
Summary of the method: as §1

[12] = test system: woolly cupgrass (Eriochloa villosa)
Summary of the method: as §1

[13] = test system: downy bromegrass (Bromus tectorum)
Summary of the method: as §1

[14] = 31 g ai/ha, postemergence, scale 0 to 100, 0 is no effect, 100 is complete control
[15] = 62 g ai/ha, postemergence, 0 is no effect, 100 is complete control, 13 to 15 days
[16] = Postemergence, 125 g ai/ha, visual rating after 13 to 15 days, scale 0 (no effect) to 100 (complete control)
[17] = Postemergence, 250 g ai/ha, scale 0 to 100 (0 no effect, 100 complete control)
[18] = Preemergence, 31 g ai/ha, scale 0 to 100 (0 no effect, 100 complete control)
[19] = Preemergence, 62 g ai/ha, scale 0 to 100 (0 no effect, 100 complete control)
[20] = Preemergence, 125 g ai/ha, scale 0 to 100, 0 no effect, 100 complete control
[21] = Preemergence, 250 g ai/ha, 0 to 100 scale

CCCc1ncc(C(=O)C2=C(O)CCCC2=O)c(=O)n1CC1CCCO1 (centres unmarked) [Compound 74]
5: Plant response rating, Ryegrass, Italian [4, 14] | Plant response rating, Wheat [5, 14] | Wheat plant response rating (0 to 100 scale) [5, 15] | Cupgrass, Woolly plant response rating [12, 21] | Bromegrass, Downy plant response rating (0 to 100 scale) [13, 15] | Plant response rating, Bromegrass, Downy [13, 16]
35: Plant response rating, Ryegrass, Italian [4, 17] | Plant response rating, Bromegrass, Downy [13, 17]
55: Plant response rating, Nutsedge, Yellow [8, 19] | Plant response rating, Cupgrass, Woolly [12, 16]
98: Plant response rating, Lambsquarters [1, 17] | Plant response rating, Lambsquarters [1, 18] | Plant response rating, Lambsquarters [1, 19] | Plant response rating, Lambsquarters [1, 20] | Plant response rating, Crabgrass, Large [6, 18] | Plant response rating, Crabgrass, Large [6, 19] | Plant response rating, Ragweed [7, 19] | Plant response rating, Ragweed [7, 20] | Pigweed plant response rating (0 to 100 scale) [9, 15] | Plant response rating, Pigweed [9, 18] | Plant response rating, Pigweed [9, 19] | Plant response rating, Velvetleaf [10, 14] | Plant response rating, Velvetleaf [10, 18] | Plant response rating, Goosegrass [11, 18] | Plant response rating, Goosegrass [11, 19]
10: Plant response rating, Ragweed [7, 18] | Plant response rating, Cupgrass, Woolly [12, 14] | Cupgrass, Woolly plant response rating (0 to 100 scale) [12, 15]
20: Plant response rating, Surinam Grass [2, 14] | Plant response rating, Foxtail, Green [3, 14] | Foxtail, Green plant response rating (0 to 100 scale) [3, 15] | Ryegrass, Italian plant response rating (0 to 100 scale) [4, 15] | Plant response rating, Ryegrass, Italian [4, 16] | Plant response rating, Nutsedge, Yellow [8, 14] | Nutsedge, Yellow plant response rating (0 to 100 scale) [8, 15] | Plant response rating, Nutsedge, Yellow [8, 18]
30: Plant response rating, Wheat [5, 16]
90: Plant response rating, Ragweed [7, 17] | Nutsedge, Yellow plant response rating [8, 21] | Plant response rating, Pigweed [9, 14]
45: Surinam Grass plant response rating (0 to 100 scale) [2, 15]
85: Plant response rating, Surinam Grass [2, 20] | Plant response rating, Foxtail, Green [3, 17] | Plant response rating, Ragweed [7, 16] | Plant response rating, Goosegrass [11, 17]
70: Plant response rating, Nutsedge, Yellow [8, 16] | Plant response rating, Nutsedge, Yellow [8, 17]
50: Plant response rating, Wheat [5, 17]
75: Plant response rating, Surinam Grass [2, 17] | Plant response rating, Ragweed [7, 14] | Ragweed plant response rating (0 to 100 scale) [7, 15] | Goosegrass plant response rating (0 to 100 scale) [11, 15] | Plant response rating, Cupgrass, Woolly [12, 17]
0: Plant response rating, Surinam Grass [2, 18] | Plant response rating, Foxtail, Green [3, 18] | Plant response rating, Foxtail, Green [3, 19] | Plant response rating, Foxtail, Green [3, 20] | Foxtail, Green plant response rating [3, 21] | Plant response rating, Ryegrass, Italian [4, 18] | Plant response rating, Ryegrass, Italian [4, 19] | Plant response rating, Ryegrass, Italian [4, 20] | Ryegrass, Italian plant response rating [4, 21] | Plant response rating, Wheat [5, 18] | Plant response rating, Wheat [5, 19] | Plant response rating, Wheat [5, 20] | Wheat plant response rating [5, 21] | Plant response rating, Cupgrass, Woolly [12, 18] | Plant response rating, Cupgrass, Woolly [12, 19] | Plant response rating, Cupgrass, Woolly [12, 20] | Plant response rating, Bromegrass, Downy [13, 14] | Plant response rating, Bromegrass, Downy [13, 18] | Plant response rating, Bromegrass, Downy [13, 19] | Plant response rating, Bromegrass, Downy [13, 20] | Bromegrass, Downy plant response rating [13, 21]
80: Plant response rating, Surinam Grass [2, 19] | Plant response rating, Foxtail, Green [3, 16] | Plant response rating, Crabgrass, Large [6, 14] | Crabgrass, Large plant response rating (0 to 100 scale) [6, 15] | Plant response rating, Goosegrass [11, 16]
100: Lambsquarters plant response rating [1, 21] | Plant response rating, Crabgrass, Large [6, 20] | Crabgrass, Large plant response rating [6, 21] | Ragweed plant response rating [7, 21] | Plant response rating, Pigweed [9, 16] | Plant response rating, Pigweed [9, 17] | Plant response rating, Pigweed [9, 20] | Pigweed plant response rating [9, 21] | Velvetleaf plant response rating (0 to 100 scale) [10, 15] | Plant response rating, Velvetleaf [10, 16] | Plant response rating, Velvetleaf [10, 17] | Plant response rating, Velvetleaf [10, 19] | Plant response rating, Velvetleaf [10, 20] | Velvetleaf plant response rating [10, 21] | Plant response rating, Goosegrass [11, 20] | Goosegrass plant response rating [11, 21]
65: Plant response rating, Surinam Grass [2, 16] | Plant response rating, Nutsedge, Yellow [8, 20] | Plant response rating, Goosegrass [11, 14]
95: Plant response rating, Lambsquarters [1, 14] | Lambsquarters plant response rating (0 to 100 scale) [1, 15] | Plant response rating, Lambsquarters [1, 16] | Surinam Grass plant response rating [2, 21] | Plant response rating, Crabgrass, Large [6, 16] | Plant response rating, Crabgrass, Large [6, 17]
